# US11878009B2, “Anticancer combination of chidamide and celecoxib salts” (Great Novel Therapeutics Biotech & Medicals Corporation, priority 2019, dated 2024)
# How the values were obtained:
# [1] = Saturation solubility in ddH2O; type: physicochemical; conditions: for Saturation & Solubility: ddH2O, 25° C., 100 rpm, 90 minutes, triplicates, mean ± SD; for water solubility (in words): saturation solubility study
# Description: Determination of Saturation Solubility of Chidamide-HCl, Chidamide-H2SO4, and Celecoxib-Na Salts. Sample of 5 mg of chidamide-HCl, chidamide-H2SO4, or celecoxib-Na salts was added to 5 ml volumetric flasks containing ddH2O and shook at 100 rpm in an incubator at 25° C. for 90 minutes. The resulting suspension was filtered through a 0.22 μm filter. The concentrations of chidamide-HCl, chidamide-H2SO4, and celecoxib-Na salts were determined spectrophotometrically at 256 nm, 256 nm, and 253 nm, respectively. The saturation solubility of each sample was determined in triplicates and the mean value and standard deviation were reported. Preparation of standard curves is described as below.
# [2] = low solubility and high permeability; cited from earlier work
Compound,Saturation & Solubility [1],water solubility (in words) [1],BCS class [2]
"Cc1ccc(-c2cc(C(F)(F)F)nn2-c2ccc(S(N)(=O)=O)cc2)cc1 [Celecoxib-API, 4-[5-(4-Methylphenyl)-3-(trifluoromethyl)pyrazol-1-yl]benzenesulfonamide, reference compound]",BDL,water-insoluble,class II
"Nc1cc(F)ccc1NC(=O)c1ccc(CNC(=O)/C=C/c2cccnc2)cc1 [Chidamide-API, 4-(((E)-3-(pyridin-3-yl)acrylamido)methyl)-N-(2-amino-4-fluorophenyl)benzamide, reference compound]",BDL,water-insoluble,–
